Data on 36 compounds can be found in patent publication US20080227780A1, “SOLUBLE EPOXIDE HYDROLASE INHIBITORS” (Arete Therapeutics, Inc., priority 2007, published 2008).

The first assay concerns soluble epoxide hydrolase (sEH). Description: Fluorescent assay for soluble epoxide hydrolase (CMNPC substrate), percent inhibition at the recited concentration. It is filed as biochemical. The following applies: Inhibition Conc. 50 nM. The source says: Fluorescent Assay for Mouse and Human Soluble Epoxide Hydrolase Recombinant mouse sEH (MsEH) and human sEH (HsEH) were produced in a baculovirus expression system as previously reported. Grant et al., J. Biol. Chem., 268:17628-17633 (1993); Beetham et al., Arch. Biochem. Biophys., 305:197-201 (1993). The expressed proteins were purified from cell lysate by affinity chromatography. Wixtrom et al., Anal. Biochem., 169:71-80 (1988). Protein concentration was quantified using the Pierce BCA assay using bovine serum albumin as the calibrating standard. The preparations were at least 97% pure as judged by SDS-PAGE and scanning densitometry. They contained no detectable esterase or glutathione transferase activity which can interfere with the assay. The assay was also evaluated with similar results in crude cell lysates or homogenate of tissues. The IC50s for each inhibitor were determined according to the following procedure: […] Jones P. D. et al.; Analytical Biochemistry 2005; 343: pp. 66-75) Bis/Tris HCl 25 mM pH 7.0 containing 0.1 mg/mL of BSA (buffer […] at 0.25 mM in DMSO. Mother solution of enzyme in buffer A (Mouse sEH at 6 μg/mL and Human sEH at 5 μg/mL). Inhibitor dissolved in DMSO at the appropriate concentration. In a black 96 well plate, fill all the wells with 150 μL of buffer A. Add 2 μL of DMSO in well A2 and A3, and then add 2 μL of inhibitor solution in A1 and A4 through A12. Add 150 μL of buffer A in row A, then mix several time and transfer 150 μL to row B. Repeat this operation up to row H. The 150 μL removed from row H is discarded. Add 20 μL of buffer A in column 1 and 2, then add 20 μL of enzyme solution to column 3 to 12. Incubate the plate for 5 minutes in the plate reader at 30° C. During incubation prepare the working solution of substrate by mixing 3.68 mL of buffer A (4×0.920 mL) with 266 μL (2×133 μL) of substrate solution). At t=0, add 30 μL of working substrate solution with multi-channel pipette labeled “Briggs 303” and start the reading ([S]final: 5 μM). Read with ex: 330 nm (20 nm) and em: 465 nm (20 nm) every 30 second for 10 minutes. The velocities are used to analyze and calculate the IC50s. Tables 1-7 above provide the percent inhibition of the enzyme when tested at the concentration recited therein.
Take `CNS(=O)(=O)c1ccc(C(=O)N2CCC(NC(=O)NC34CC5CC(CC(C5)C3)C4)CC2)cc1` [Compound 4-8, 4-(4-(3-(1-adamantyl)ureido)-piperidine-1-carbonyl)-N-methylbenzene-sulfonamide]: the “% inh.” value is listed as 93%.

As to `CNS(=O)(=O)c1cccc(C(=O)N2CCC(NC(=O)Nc3ccc(C(F)(F)F)cc3)CC2)c1` [Compound 4-9, N-methyl-3-(4-(3-(4-(trifluoromethyl)phenyl)ureido)piperidine-1-carbonyl)benzene-sulfonamide], the “% inh.” value is 99%.

With `CNS(=O)(=O)c1cccc(C(=O)N2CCC(NC(=O)Nc3ccc(OC(F)(F)F)cc3)CC2)c1` [Compound 4-10, N-methyl-3-(4-(3-(4-(trifluoromethoxy)-phenyl)ureido)-piperidine-1-carbonyl)benzene-sulfonamide], the “% inh.” value is 93%.

In the case of `CC(C)(C)OC(=O)N1CCC(NC(=O)Nc2ccc(S(=O)(=O)N3CCOCC3)cc2)CC1` [Compound 5-1, tert-butyl 4-(3-(4-(morpholinosulfonyl)-phenyl)ureido)-piperidine-1-carboxylate], the “% inh.” value is 80%.

Turning to `CC(C)(C)OC(=O)N1CCC(NC(=O)Nc2ccc3ncccc3c2)CC1` [Compound 6-1, tert-butyl 4-(3-quinolin-6-yl-ureido)piperidine-1-carboxylate], the “% inh.” value worked out at 86%.

`CC(C)(C)OC(=O)N1CCC(NC(=O)Nc2ccc3c(c2)CCC3)CC1` [Compound 6-5, tert-butyl 4-(3-(2,3-dihydro-1H-inden-5-yl)ureido)-piperidine-1-carboxylate]: the “% inh.” value was found to be 92%.

For `COc1ccc(S(=O)(=O)N2CCC(NC(=O)NC34CC5CC(CC(C5)C3)C4)CC2)cc1` [Compound 7-1, 1-(1-adamantyl)-3-(1-(4-methoxyphenylsulfonyl)-piperidin-4-yl)urea], the “% inh.” value is 99%.

In the case of `O=C(Nc1ccc(OC(F)(F)F)cc1)NC1CCN(C(=O)c2ccccn2)CC1` [Compound 7-2, 1-(1-picolinoylpiperidin-4-yl)-3-(4-(trifluoro-methoxy)phenyl)urea], the “% inh.” value amounted to 98%.

On to `CCC1CCC(NC(=O)NC2CCN(C(C)=O)CC2)CC1` (stereo not drawn) [Compound 7-4, 1-(1-acetylpiperidin-4-yl)-3-(4-ethylcyclohexyl)urea], for which the “% inh.” value came to 72%.

As to `CC(=O)N1CCC(NC(=O)NC2CCC3CCCCC3C2)CC1` (stereo not drawn) [Compound 7-5, 1-(1-acetylpiperidin-4-yl)-3-(decahydronaphthalen-2-yl)urea], the “% inh.” value turned out to be 93%.

Regarding `CC(=O)N1CCC(NC(=O)NC2CCC(C)(C)CC2)CC1` [Compound 7-6, 1-(1-acetylpiperidin-4-yl)-3-(4,4-dimethylcyclo-hexyl)urea], the “% inh.” value is listed as 70%.

For `CC(=O)N1CCC(NC(=O)NC2CC3CCC2C3)CC1` (stereo not drawn) [Compound 7-7, 1-(1-acetylpiperidin-4-yl)-3-(bicyclo[2.2.1]heptan-2-yl)urea], the “% inh.” value came out at 88%.

Take `Cc1nc(C(=O)N2CCC(NC(=O)NC34CC5CC(CC(C5)C3)C4)CC2)c(C)o1` [Compound 7-8, 1-(1-adamantyl)-3-(1-(2,5-dimethyloxazole-4-carbonyl)piperidin-4-yl)urea]: the “% inh.” value is on record as 89%.

As for `CC(C)(C)OC(=O)N1CCC(NC(=O)Nc2ccc(Oc3ccccc3)cc2)CC1` [Compound 7-9, tert-butyl 4-(3-(4-phenoxyphenyl)ureido)-piperidine-1-carboxylate], the “% inh.” value is 92%.

`CCCOc1ccc(NC(=O)NC2CCN(C(=O)OC(C)(C)C)CC2)cc1` [Compound 7-10, tert-butyl 4-(3-(4-propoxyphenyl)ureido)-piperidine-1-carboxylate]: the “% inh.” value is given as 80%.

Still in this assay, the particulars now being: Inhibition Conc. 200 nM.
With `Cc1nc2ccc(NC(=O)NC3CCN(C(=O)OC(C)(C)C)CC3)cc2s1` [Compound 6-14, tert-butyl 4-(3-(2-methylbenzo[d]thiazol-6-yl)ureido)piperidine-1-carboxylate], the “% inh.” value is recorded as 77%.

Regarding `COC(=O)c1ccc(NC(=O)NC2CCN(C(=O)OC(C)(C)C)CC2)s1` [Compound 6-17, tert-butyl 4-(3-(5-(methoxycarbonyl)thiophen-2-yl)ureido)piperidine-1-carboxylate], the “% inh.” value is given as 87%.

The same assay, now with this note: Inhibition Conc. 500 nM.
Consider `CNS(=O)(=O)c1ccc(C(=O)N2CCC(NC(=O)Nc3ccc(F)cc3)CC2)cc1` [Compound 4-11, 4-(4-(3-(4-fluorophenyl)ureido)piperidine-1-carbonyl)-N-methylbenzene-sulfonamide], for which the “% inh.” value was 94%.

Regarding `CC(=O)N1CCC(NC(=O)Nc2ccc(S(=O)(=O)N3CCOCC3)cc2)CC1` [Compound 5-2, 1-(1-acetylpiperidin-4-yl)-3-(4-(morpholinosulfonyl)phenyl)urea], the “% inh.” value worked out at 90%.

Regarding `CC(C)(C)OC(=O)N1CCC(NC(=O)Nc2ccc3cc[nH]c3c2)CC1` [Compound 6-2, tert-butyl 4-(3-1H-indol-6-yl-ureido)piperidine-1-carboxylate], the “% inh.” value turned out to be 87%.

On to `CC(=O)N1CCC(NC(=O)Nc2ccc3ncccc3c2)CC1` [Compound 6-4, 1-(1-acetylpiperidin-4-yl)-3-(quinolin-6-yl)urea], for which the “% inh.” value was 70%.

As for `CC(=O)N1CCC(NC(=O)Nc2ccc3c(c2)CCC3)CC1` [Compound 6-6, 1-(1-acetyl-piperidin-4-yl)-3-(2,3-dihydro-1H-inden-5-yl)urea], the “% inh.” value came out at 93%.

As for `CC(C)(C)OC(=O)N1CCC(NC(=O)Nc2ccc(-c3nnn[nH]3)cc2)CC1` [Compound 6-8, tert-butyl 4-(3-(4-(1H-tetrazol-5-yl)phenyl)-ureido)piperidine-1-carboxylate], the “% inh.” value is reported as 93%.

On to `CC(=O)N1CCC(NC(=O)NC2CCC(C(C)(C)C)CC2)CC1` (stereo not drawn) [Compound 7-3, 1-(1-acetylpiperidin-4-yl)-3-(4-tert-butylcyclohexyl)urea], for which the “% inh.” value amounted to 86%.

The same assay, now with this note: Inhibition Conc. 2000 nM.
Take `CC(=O)N1CCC(NC(=O)Nc2ccccn2)CC1` [Compound 6-10, 1-(1-acetylpiperidin-4-yl)-3-(pyridin-2-yl)urea]: the “% inh.” value was found to be 18%.

Take `COc1ccc(NC(=O)NC2CCN(C(C)=O)CC2)cn1` [Compound 6-11, 1-(1-acetylpiperidin-4-yl)-3-(6-methoxypyridin-3-yl)urea]: the “% inh.” value stood at 44%.

As for `CC(=O)N1CCC(NC(=O)Nc2cccnc2)CC1` [Compound 6-12, 1-(1-acetylpiperidin-4-yl)-3-(pyridin-3-yl)urea], the “% inh.” value was found to be 40%.

As for `COc1ccc(NC(=O)NC2CCN(C(=O)C(C)(C)C)CC2)cn1` [Compound 6-13, 1-(6-methoxypyridin-3-yl)-3-(1-pivaloylpiperidin-4-yl)urea], the “% inh.” value came to 97%.

Regarding `CC(=O)N1CCC(NC(=O)Nc2ccc3nc(C)sc3c2)CC1` [Compound 6-15, 1-(1-acetylpiperidin-4-yl)-3-(2-methylbenzo[d]thiazol-6-yl)urea], the “% inh.” value was 70%.

For the compound `COC(=O)c1ccc(NC(=O)NC2CCN(C(C)=O)CC2)s1` [Compound 6-16, methyl 5-(3-(1-acetylpiperidin-4-yl)ureido)thiophene-2-carboxylate], the “% inh.” value came out at 78%.

`COC(=O)c1ccc(NC(=O)NC2CCN(C(=O)OC(C)(C)C)CC2)o1` [Compound 6-18, tert-butyl 4-(3-(5-(methoxycarbonyl)furan-2-yl)ureido)piperidine-1-carboxylate]: the “% inh.” value is on record as 89%.

As for `CC(=O)N1CCC(NC(=O)Nc2ccc3c(c2)OCCO3)CC1` [Compound 6-19, 1-(1-acetylpiperidin-4-yl)-3-(2,3-dihydrobenzo[b][1,4]dioxin-6-yl)urea], the “% inh.” value came to 87%.

The assay is the same for the next values; noted with them: Inhibition Conc. 5000 nM.
Take `CC(C)(C)OC(=O)N1CCC(NC(=O)Nc2ccncc2)CC1` [Compound 6-3, tert-butyl 4-(3-pyridin-4-yl-ureido)piperidine-1-carboxylate]: the “% inh.” value stood at 81%.

With `CC(=O)N1CCC(NC(=O)Nc2ccc(-c3nnn[nH]3)cc2)CC1` [Compound 6-9, 1-(4-(1H-tetrazol-5-yl)phenyl)-3-(1-acetylpiperidin-4-yl)urea], the “% inh.” value is given as 84%.

Take `CCCOc1ccc(NC(=O)NC2CCN(C(C)=O)CC2)cc1` [Compound 7-11, 1-(1-acetylpiperidin-4-yl)-3-(4-propoxyphenyl)urea]: the “% inh.” value is on record as 94%.

The same assay, now with this note: Inhibition Conc. 50000 nM.
Take `CC(=O)N1CCC(NC(=O)Nc2ccncc2)CC1` [Compound 6-7, 1-(1-acetyl-piperidin-4-yl)-3-(pyridin-4-yl)urea]: the “% inh.” value was determined as 53%.
